Where a SMILES comes first, the peptide text is derived from it. [ ]: non-standard residue; d: D form.
Experiments:
SK‐BR‐3 = test: Plasma membrane damage (LDH leakage, Annexin V binding); assay type: cell-based; conditions: SK‐BR‐3, 8 μM peptides, Figure 5a,b
Method: 7 × 10^3–10^4 cells were seeded in a 96‐well plate and left to recover overnight. The cells were treated with 8 μM of peptides and were harvested at two time points. The treated cells were harvested, and the supernatants were collected.
The cells were stained with FITC Annexin V and 7‐AAD (Biolegend) in Annexin V binding buffer (Becton, Dickinson and Company). The binding of Annexin V was checked using flow cytometry.
25 μL of the supernatant was used to check the presence of active lactate dehydrogenase using the CyQUANT LDH Cytotoxicity Assay Kit (Thermo Fisher Scientific) according to the manufacturer's instructions. The absorbance was measured at 490 and 680 nm.

[1] = tested on: Caki‐2, SK‐BR‐3, A‐704 and CCD18‐Co; test: FITC‐peptide uptake by flow cytometry; assay type: cell-based; conditions: Caki‐2 and SK‐BR‐3, 5 μM FITC‐peptide, 1 h, Figure 2a
Method: 7 × 10^3–10^4 cells were seeded in a 96‐well plate. On the next day, the cells were incubated with 5 μM of FITC‐conjugated peptides. The cells were harvested at different time points and measured for their fluorescence intensity using BD FACSCanto II (Becton, Dickinson and Company, Franklin Lanes, NJ, USA). Dead cells were excluded by staining the cells with 7‐AAD dye (Biolegend, San Diego, CA, USA).

[2] = attributed to high polarity; cited from earlier work
From the text: (§1) Nonetheless, introducing this peptide to human sarcoma and melanoma cell lines at 1% of their inhibitory concentrations (IC50) was described to induce mitochondrial swelling p ...

human erythrocytes = conditions: cited from earlier work
From the text: as §1

SMILES | time after peptide addition at which major plasma membrane damage was detected (SK‐BR‐3) | internalization (fluorescence intensity) of FITC‐peptides [1] | ability to cross the plasma membrane [2] | cytotoxicity towards human erythrocytes (human erythrocytes)
CC(C)C[C@H](NC(=O)[C@H](Cc1c[nH]c2ccccc12)NC(=O)[C@@H]1CCCN1C(=O)[C@H](CO)NC(=O)[C@H](Cc1ccc(O)cc1)NC(=O)[C@@H](N)C(C)C)C(=O)N[C@H](C(=O)NCC(=O)NCC(=O)N[C@H](CCCCN)C(=O)N[C@H](CC(C)C)C(=O)N[C@H](C)C(=O)N[C@H](CCCCN)C(=O)N[C@H](CC(C)C)C(=O)N[C@H](C)C(=O)N[C@H](CCCCN)C(=O)N[C@H](CCCCN)C(=O)N[C@H](CC(C)C)C(=O)N[C@H](C)C(=O)N[C@H](CCCCN)C(=O)N[C@H](CC(C)C)C(=O)N[C@H](C)C(=O)N[C@H](CCCCN)C(=O)O)[C@@H](C)O [TP2‐D‐Tox] (H-VYSPWLTGG[dK][dL][dA][dK][dL][dA][dK][dK][dL][dA][dK][dL][dA][dK]-OH) | ≤ 3 h | higher cell penetration | – | –
CC(C)C[C@H](N)C(=O)N[C@H](C(=O)N[C@H](C(=O)N[C@@H](CO)C(=O)N1CCC[C@H]1C(=O)N[C@@H](Cc1c[nH]c2ccccc12)C(=O)N[C@@H](Cc1ccc(O)cc1)C(=O)NCC(=O)NCC(=O)N[C@H](CCCCN)C(=O)N[C@H](CC(C)C)C(=O)N[C@H](C)C(=O)N[C@H](CCCCN)C(=O)N[C@H](CC(C)C)C(=O)N[C@H](C)C(=O)N[C@H](CCCCN)C(=O)N[C@H](CCCCN)C(=O)N[C@H](CC(C)C)C(=O)N[C@H](C)C(=O)N[C@H](CCCCN)C(=O)N[C@H](CC(C)C)C(=O)N[C@H](C)C(=O)N[C@H](CCCCN)C(=O)O)C(C)C)[C@@H](C)O [TP‐D‐Tox] (H-LTVSPWYGG[dK][dL][dA][dK][dL][dA][dK][dK][dL][dA][dK][dL][dA][dK]-OH) | ≤ 3 h | – | – | –
CC(C)C[C@H](NC(=O)[C@H](CCCCN)NC(=O)[C@H](C)NC(=O)[C@H](CC(C)C)NC(=O)[C@H](CCCCN)NC(=O)[C@H](CCCCN)NC(=O)[C@H](C)NC(=O)[C@H](CC(C)C)NC(=O)[C@H](CCCCN)NC(=O)[C@H](C)NC(=O)[C@H](CC(C)C)NC(=O)[C@@H](N)CCCCN)C(=O)N[C@@H](C)C(=O)N[C@@H](CCCCN)C(=O)O [Tox] | – | – | hardly able to cross the plasma membrane | considerably lower cytotoxicity

Reference: PMC12127091, “Targeting Cancer With Bifunctional Peptides: Mechanism of Cell Entry and Inciting Cell Death” (Cancer Science, 2025)
